Where “and” joins values, the source holds several entries; their conditions need not be identical. Equal entries are not always repeated. Toxic doses and inconclusive results are not listed. Rule as the data show it: active = T/C of 150% or more; inactive = T/C below 125%.
System: L1210 leukemia ip in BDF1 mice, survival T/C
Test: NCI In Vivo Anticancer Drug Screen. Data for tumor model L1210 Leukemia (intraperitoneal) in B6D2F1 (BDF1) mice
Conditions: endpoint: mean survival time, higher = longer survival
Summary of the method: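 Antitumor effect is assessed in tumor-bearing animals. Survival in the compound arm is compared with a vehicle-dosed control arm and expressed as their quotient.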

[1] = dose: 100.0 mg/kg/injection, schedule: Q01DX009 (ip), vehicle: Klucel (hydroxypropylcellulose) (HPC)
[2] = dose: 200.0 mg/kg/injection, schedule: Q01DX009 (ip), vehicle: Klucel (hydroxypropylcellulose) (HPC)
[3] = dose: 400.0 mg/kg/injection, schedule: Q01DX009 (ip), vehicle: Klucel (hydroxypropylcellulose) (HPC)
[4] = dose: 100.0 mg/kg/injection, schedule: Q04DX003 (ip), vehicle: saline with Tween-80
[5] = dose: 200.0 mg/kg/injection, schedule: Q04DX003 (ip), vehicle: saline with Tween-80
[6] = dose: 400.0 mg/kg/injection, schedule: Q04DX003 (ip), vehicle: saline with Tween-80
[7] = dose: 100.0 mg/kg/injection, schedule: Q04DX003 (ip), vehicle: Klucel (hydroxypropylcellulose) (HPC)
[8] = dose: 200.0 mg/kg/injection, schedule: Q04DX003 (ip), vehicle: Klucel (hydroxypropylcellulose) (HPC)
[9] = dose: 400.0 mg/kg/injection, schedule: Q04DX003 (ip), vehicle: Klucel (hydroxypropylcellulose) (HPC)
[10] = dose: 12.5 mg/kg/injection, schedule: Q01DX009 (ip), vehicle: saline
[11] = dose: 25.0 mg/kg/injection, schedule: Q01DX009 (ip), vehicle: saline
[12] = dose: 100.0 mg/kg/injection, schedule: Q04DX003 (ip), vehicle: saline
[13] = dose: 200.0 mg/kg/injection, schedule: Q04DX003 (ip), vehicle: saline
[14] = dose: 400.0 mg/kg/injection, schedule: Q04DX003 (ip), vehicle: saline

Measured: T/C

NC(N)=N/N=C/c1ccc[nH]1
inactive: dose: 15.0 mg/kg/injection, schedule: Q01DX Z (ip), vehicle: saline 94 % of control | dose: 30.0 mg/kg/injection, schedule: Q01DX Z (ip), vehicle: saline 99 % of control | dose: 60.0 mg/kg/injection, schedule: Q01DX Z (ip), vehicle: saline 96 % of control | dose: 120.0 mg/kg/injection, schedule: Q01DX Z (ip), vehicle: saline 91 % of control | dose: 120.0 mg/kg/injection, schedule: Q01DX Z (oral), vehicle: saline 105 % of control | dose: 240.0 mg/kg/injection, schedule: Q01DX Z (ip), vehicle: saline 93 % of control | dose: 240.0 mg/kg/injection, schedule: Q01DX Z (oral), vehicle: saline 106 % of control | dose: 480.0 mg/kg/injection, schedule: Q01DX Z (ip), vehicle: saline 98 % of control | dose: 480.0 mg/kg/injection, schedule: Q01DX Z (oral), vehicle: saline 103 % of control | dose: 960.0 mg/kg/injection, schedule: Q01DX Z (oral), vehicle: saline 103 % of control

CN(C)C=Nc1cc2c(cc1Br)-c1ccccc1C2=O
inactive: [1] 101 % of control | [2] 95 % of control | [3] 93 % of control

COc1cc(C(=O)NOCc2cccc(C(F)(F)F)c2)cc(OC)c1OC
inactive: [4] 98 % of control | [5] 98 % of control | [6] 101 % of control

CCc1ccccc1NC(=O)Nc1ccc(C(=O)O)cc1
inactive: [1] 98 % of control | [2] 94 % of control

COC(=O)c1cccc(C)c1C(=O)c1ccccc1
inactive: [1] 104 % of control | [7] 101 % of control | [2] 96 % of control | [8] 101 % of control | [3] 98 % of control | [9] 95 % of control

O=C(Nc1ccc(Cl)cc1)Oc1ccc(Cl)cc1Cl
inactive: dose: 25.0 mg/kg/injection, schedule: Q01DX009 (ip), vehicle: DMSO 92 % of control | dose: 25.0 mg/kg/injection, schedule: Q04DX002 (ip), vehicle: DMSO 94 % of control | dose: 50.0 mg/kg/injection, schedule: Q01DX009 (ip), vehicle: DMSO 86 % of control | dose: 50.0 mg/kg/injection, schedule: Q04DX002 (ip), vehicle: DMSO 87 % of control | dose: 200.0 mg/kg/injection, schedule: Q04DX002 (ip), vehicle: DMSO 96 % of control

ClCCOCCOc1ccccc1
inactive: [4] 96 % of control | [5] 100 % of control | [6] 101 % of control

CCN(CC)Cc1cc(Nc2cc(C)nc3ccc(N(C)C)cc23)ccc1O
inactive: [10] 104 % of control | [11] 98 % of control | dose: 50.0 mg/kg/injection, schedule: Q01DX009 (ip), vehicle: saline 100 % of control

O=[N+]([O-])c1ccc(/C=C/C=C/c2ccccc2)cc1Cl
inactive: [7] 102 % of control | [8] 102 % of control | [9] 101 % of control

BrCc1cccc2cccnc12
inactive: dose: 1.56 mg/kg/injection, schedule: Q01DX009 (ip), vehicle: saline with Tween-80 93 % of control | dose: 3.13 mg/kg/injection, schedule: Q01DX009 (ip), vehicle: saline with Tween-80 96 % of control | dose: 6.25 mg/kg/injection, schedule: Q01DX009 (ip), vehicle: saline with Tween-80 91 % of control | dose: 12.5 mg/kg/injection, schedule: Q01DX009 (ip), vehicle: saline with Tween-80 91 % of control

COC1(OC)CCC=C(CNc2ncnc3nc[nH]c23)C1
inactive: dose: 100.0 mg/kg/injection, schedule: Q01DX001 (ip), vehicle: saline with Tween-80 102 % of control | dose: 200.0 mg/kg/injection, schedule: Q01DX001 (ip), vehicle: saline with Tween-80 94 % of control | dose: 400.0 mg/kg/injection, schedule: Q01DX001 (ip), vehicle: saline with Tween-80 100 % of control

CCCCOC(=O)Nc1cc(Cl)ccc1C
inactive: dose: 100.0 mg/kg/injection, schedule: Q01DX001 (ip), vehicle: gum acacia 95 % of control | dose: 200.0 mg/kg/injection, schedule: Q01DX001 (ip), vehicle: gum acacia 96 % of control | dose: 400.0 mg/kg/injection, schedule: Q01DX001 (ip), vehicle: gum acacia 98 % of control

COc1ccc2c(=O)c3c(O)cc(OC)cc3oc2c1
inactive: dose: 100.0 mg/kg/injection, schedule: Q01DX001 (ip), vehicle: saline 97 % of control | dose: 200.0 mg/kg/injection, schedule: Q01DX001 (ip), vehicle: saline 101 % of control | dose: 400.0 mg/kg/injection, schedule: Q01DX001 (ip), vehicle: saline 87 % of control and 90 % of control

CCCCCC(N)CC(=O)O (configuration not stated)
inactive: dose: 100.0 mg/kg/injection, schedule: Q01DX009 (ip), vehicle: saline 105 % of control | [12] 102 % of control | dose: 200.0 mg/kg/injection, schedule: Q01DX009 (ip), vehicle: saline 96 % of control | [13] 96 % of control | dose: 400.0 mg/kg/injection, schedule: Q01DX009 (ip), vehicle: saline 96 % of control | [14] 105 % of control

C=CC1CCC2OC(=O)C(=C)C2C1 (configuration not stated)
inactive: [12] 101 % of control | [13] 95 % of control | [14] 101 % of control

CC1=NCCc2ccccc21
inactive: dose: 6.25 mg/kg/injection, schedule: Q01DX009 (ip), vehicle: saline 92 % of control | [10] 95 % of control | [11] 90 % of control

CCOP(=O)(OCC)O/N=C(/C#N)c1ccccc1
inactive: dose: 75.0 mg/kg/injection, schedule: Q01DX001 (ip), vehicle: saline 91 % of control

O=C1NC(Cc2ccccc2)C(=O)O1 (configuration not stated)
inactive: [12] 100 % of control | [13] 91 % of control | [14] 93 % of control

CCCC(CN)(CCN1CCOCC1)c1cccc2ccccc12 (configuration not stated)
inactive: [12] 98 % of control | [13] 95 % of control

O=[N+]([O-])c1ccc2c(c1)/C(=C1/c3cc(Br)ccc3-c3ccc([N+](=O)[O-])cc31)c1cc(Br)ccc1-2
inactive: [4] 87 % of control | [5] 97 % of control | [6] 92 % of control

O=[N+]([O-])c1ccc(F)c(CNc2ncnc3c2ncn3C2CCCCO2)c1 (configuration not stated)
inactive: [1] 100 % of control | [2] 106 % of control | [3] 100 % of control

O=C(Nc1cccc(C(=O)Nc2cccc(C3=NCCN3)c2)c1)Nc1cccc(C(=O)Nc2cccc(C3=NCCN3)c2)c1
inactive: dose: 15.0 mg/kg/injection, schedule: Q01DX Z (ip), vehicle: methylcellulose (MC) 96 % of control | dose: 30.0 mg/kg/injection, schedule: Q01DX Z (ip), vehicle: methylcellulose (MC) 96 % of control | dose: 60.0 mg/kg/injection, schedule: Q01DX Z (ip), vehicle: methylcellulose (MC) 94 % of control | dose: 120.0 mg/kg/injection, schedule: Q01DX Z (ip), vehicle: methylcellulose (MC) 98 % of control | dose: 125.0 mg/kg/injection, schedule: Q01DX Z (ip), vehicle: carboxymethylcellulose (CMC) 110 % of control | dose: 250.0 mg/kg/injection, schedule: Q01DX Z (ip), vehicle: carboxymethylcellulose (CMC) 105 % of control | dose: 500.0 mg/kg/injection, schedule: Q01DX Z (ip), vehicle: carboxymethylcellulose (CMC) 96 % of control

CNc1ncnc(NC)c1[N+](=O)[O-]
inactive: dose: 100.0 mg/kg/injection, schedule: Q04DX002 (ip), vehicle: Klucel (hydroxypropylcellulose) (HPC) 101 % of control | dose: 200.0 mg/kg/injection, schedule: Q04DX002 (ip), vehicle: Klucel (hydroxypropylcellulose) (HPC) 90 % of control

CN(C)CCCNC(=S)S
inactive: dose: 6.0 mg/kg/injection, schedule: Q01DX009 (ip), vehicle: saline 106 % of control | dose: 12.0 mg/kg/injection, schedule: Q01DX009 (ip), vehicle: saline 100 % of control | [11] 111 % of control

O=C(N/N=C(\C=N\NC(=O)c1ccccc1)CC(O)C(O)CO)c1ccccc1 (configuration not stated)
inactive: [7] 91 % of control | [8] 96 % of control | [9] 93 % of control

c1ccc([P+](CCN2CCC([P+](c3ccccc3)(c3ccccc3)c3ccccc3)=N2)(c2ccccc2)c2ccccc2)cc1
inactive: dose: 1.56 mg/kg/injection, schedule: Q04DX003 (ip), vehicle: saline 103 % of control | dose: 3.12 mg/kg/injection, schedule: Q04DX003 (ip), vehicle: saline 105 % of control

From PubChem BioAssay AID248 (DTP/NCI, 2004)
